Assay results from patent publication US20140031217A1, “HERBICIDAL COMPOSITIONS COMPRISING 4-AMINO-3-CHLORO-5-FLUORO-6-(4-CHLORO-2-FLUORO-3-METHOXYPHENYL)PYRIDINE-2-CARBOXYLIC ACID OR A DERIVATIVE THEREOF AND AUXIN TRANSPORT INHIBITORS” (DOW AGROSCIENCES LLC, priority 2012, published 2014).

How the values were obtained:
[1] = tested on: FIMMI; experiment: In-water applied (paddy) greenhouse weed control, FIMMI; assay type: in vivo, Fimbristylis miliacea (L.) Vahl; conditions: 19 DAA
Protocol: (§1) Weed seeds or nutlets of the desired test plant species were planted in puddled soil (mud) prepared by mixing a shredded, non-sterilized mineral soil (50.5 percent silt, 25.5 percent clay, and 24 percent sand, with a pH of about 7.6 and an organic matter content of about 2.9 percent) and water at a 1:1 volumetric ratio. The prepared mud was dispensed in 365 mL aliquots into 16-ounce (oz.) non-perforated plastic pots with a surface area of 86.59 square centimeters (cm^2) leaving a headspace of 3 centimeters (cm) in each pot. Mud was allowed to dry overnight prior to planting or transplanting. Rice seeds were planted in Sun Gro MetroMix® 306 planting mixture, which typically has a pH of 6.0 to 6.8 and an organic matter content of about 30 percent, in plastic plug trays. Seedlings at the second or third leaf stage of growth were transplanted into 840 mL of mud contained in 32-oz. non-perforated plastic pots with a surface area of 86.59 cm^2 4 days prior to herbicide application. The paddy was created by filling the headspace of the pots with 2.5 to 3 cm of water. When required to ensure good germination and healthy plants, a fungicide treatment and/or other chemical or physical treatment was applied. The plants were grown for 4-22 days in a greenhouse with an approximate 14 h photoperiod which was maintained at about 29′C during the day and 26° C. during the night. Nutrients were added as Osmocote® (19:6:12, N:P:K+minor nutrients) at 2 g per 16-oz. pot and 4 g per 960-mL 32-oz. pot. Water was added on a regular basis to maintain the paddy flood, and supplemental lighting was provided with overhead metal halide 1000-Watt lamps as necessary. The plants were employed for testing when they reached the second or third true leaf stage.
(§2) Treatments consisted of the acid or esters of 4-amino-3-chloro-5-fluoro-6-(4-chloro-2-fluoro-3-methoxy-phenyl)pyridine-2-carboxylic acid (compound A) each formulated as an SC and various herbicidal components alone and in combination. Forms of compound A were applied on an acid equivalent basis.
(§3) Other herbicidal components were applied on an active ingredient basis and included auxin transport inhibiting (ATI) herbicides chlorflurenol-methyl (technical material), chlorflurenol (technical material), diflufenzopyr (technical material), dilfufenzopyr sodium (technical material), flurenol-methyl (technical material,) and naptalam (technical material).
(§4) Treatment requirements for each compound or herbicidal component were calculated based upon the rates being tested, the concentration of active ingredient or acid equivalent in the formulation, an application volume of 2 mL per component per pot, and an application area of 86.59 cm^2 per pot.
(§5) For formulated compounds, a measured amount was placed in an individual 100 or 200 mL glass vial and was dissolved in a volume of 1.25% (v/v) Agri-Dex® crop oil concentrate to obtain application solutions.
(§6) For technical grade compounds, a weighed amount was placed in an individual 100 to 200 mL glass vial and was dissolved in a volume of acetone to obtain concentrated stock solutions. […] The concentrated stock solutions obtained were diluted with an equivalent volume of an aqueous mixture containing 2.5% (v/v) crop oil concentrate so that the final application solutions contained 1.25% (v/v) crop oil concentrate.
(§7) Applications were made by injecting with a pipetter appropriate amounts of the application solutions, individually and sequentially, into the aqueous layer of the paddy. Control plants were treated in the same manner with the solvent blank. Applications were made so that all treated plant material received the same concentrations of acetone and crop oil concentrate.
(§8) The treated plants and control plants were placed in a greenhouse as described above and water was added as needed to maintain a paddy flood. […]

[2] = tested on: CYPRO; experiment: In-water applied (paddy) greenhouse weed control, CYPRO; assay type: in vivo, Cyperus rotundus L.; conditions: 19 DAA
Protocol: as §1, §2, §3, §4, §5, §6, §7, §8

## COc1c(Cl)ccc(-c2nc(C(=O)OCc3ccccc3)c(Cl)c(N)c2F)c1F [Compound A Benzyl Ester]
[1]; 8 gae/ha
  Visual Weed Control (%) Obs: 0%
[1]; 16 gae/ha
  Visual Weed Control (%) Obs: 0%
[1]; 32 gae/ha
  Visual Weed Control (%) Obs: 85%
[2]; 8 gae/ha
  Visual Weed Control (%) Obs: 50%
[2]; 16 gae/ha
  Visual Weed Control (%) Obs: 85%
[2]; 32 gae/ha
  Visual Weed Control (%) Obs: 90%
